Active and inactive are the calls of the source. The rule behind the calls is not given here.
Assays:
[1] = target: T1, NAD-dependent protein deacetylase sirtuin-2 (Homo sapiens, UniProt Q8IXJ6); assay: Inhibition of N-terminal His6 tagged human sirtuin 2 (25 to 389 residues) at 25 uM using Cbz-Lys(acetyl)-AMC as substrate after 4 hrs in presence of NAD+ by homogeneous fluorescence based analysis relative to control
T1 sequence (Q8IXJ6 whole entry): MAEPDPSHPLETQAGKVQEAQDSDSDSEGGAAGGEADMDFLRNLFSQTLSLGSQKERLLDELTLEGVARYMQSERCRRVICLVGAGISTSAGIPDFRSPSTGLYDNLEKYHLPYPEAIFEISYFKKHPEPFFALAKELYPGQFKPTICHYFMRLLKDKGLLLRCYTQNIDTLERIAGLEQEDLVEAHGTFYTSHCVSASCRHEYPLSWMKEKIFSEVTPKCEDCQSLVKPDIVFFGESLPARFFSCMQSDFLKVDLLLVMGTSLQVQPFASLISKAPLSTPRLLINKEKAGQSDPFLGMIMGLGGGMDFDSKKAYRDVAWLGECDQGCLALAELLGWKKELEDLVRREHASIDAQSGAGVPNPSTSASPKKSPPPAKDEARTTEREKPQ

[2] = tested on: Schistosoma mansoni; assay: Antiparasitic activity against adult Schistosoma mansoni Puerto Rico assessed as reduction in egg laying at 10 to 20 uM after 24 hrs by microscopic analysis; type: functional, organism-based
[3] = tested on: HL-60; assay: Cytotoxicity against human HL60 cells at 10 uM after 72 hrs by Cell titer MTS dye based analysis; conditions: hl-60, 72 h
[4] = target: T2, NAD-dependent protein deacetylase (Schistosoma mansoni) (UniProt T1VXA1); assay: Inhibition of recombinant Schistosoma mansoni sirtuin 2 (21 to 322 residues) expressed in Escherichia coli BL21(DE3) cells assessed as inhibition of substrate demyristoylation at 20 uM using (Z)-(Myr)-Lys-AMC as susbtrate after 1 hr in presence of NAD+ by homogeneous fluorescence based analysis relative to control
T2 sequence (whole entry): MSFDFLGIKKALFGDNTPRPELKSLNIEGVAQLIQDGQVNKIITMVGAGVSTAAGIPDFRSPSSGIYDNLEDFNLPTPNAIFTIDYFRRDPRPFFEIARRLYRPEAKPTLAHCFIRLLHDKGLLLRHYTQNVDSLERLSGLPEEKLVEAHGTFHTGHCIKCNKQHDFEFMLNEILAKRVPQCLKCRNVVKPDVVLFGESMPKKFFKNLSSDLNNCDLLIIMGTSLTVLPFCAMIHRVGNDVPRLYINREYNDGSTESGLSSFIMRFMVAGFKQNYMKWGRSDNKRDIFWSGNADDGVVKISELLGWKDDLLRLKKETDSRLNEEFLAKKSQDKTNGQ

[5] = tested on: Schistosoma mansoni; assay: Antiparasitic activity against Schistosoma mansoni Puerto Rico assessed as reduction in parasite viability at 10 to 20 uM after 72 hrs by microscopic analysis; type: functional, organism-based
[6] = target: T1, NAD-dependent protein deacetylase sirtuin-2; assay: Inhibition of N-terminal His6 tagged human sirtuin 2 (25 to 389 residues) assessed as inhibition of substrate demyristoylation using (Z)-(Myr)-Lys-AMC as susbtrate after 4 hrs in presence of NAD+ by homogeneous fluorescence based analysis
[7] = target: T3, NAD-dependent protein deacetylase sirtuin-3, mitochondrial (Homo sapiens, UniProt Q9NTG7); assay: Inhibition of human sirtuin 3 at 25 uM relative to control
T3 sequence (Q9NTG7 whole entry): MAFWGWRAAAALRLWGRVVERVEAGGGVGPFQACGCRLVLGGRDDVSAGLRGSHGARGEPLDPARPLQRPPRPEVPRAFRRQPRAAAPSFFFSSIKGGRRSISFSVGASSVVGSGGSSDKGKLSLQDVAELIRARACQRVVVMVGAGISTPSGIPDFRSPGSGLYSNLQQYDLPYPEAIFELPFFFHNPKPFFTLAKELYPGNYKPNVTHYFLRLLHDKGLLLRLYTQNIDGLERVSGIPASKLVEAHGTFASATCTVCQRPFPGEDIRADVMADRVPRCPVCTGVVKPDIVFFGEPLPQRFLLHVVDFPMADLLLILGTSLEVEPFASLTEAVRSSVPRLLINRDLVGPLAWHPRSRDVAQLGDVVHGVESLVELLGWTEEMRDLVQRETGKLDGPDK

[8] = target: T4, NAD-dependent protein deacetylase sirtuin-1 (Homo sapiens, UniProt Q96EB6); assay: Inhibition of human sirtuin 1 at 25 uM relative to control
T4 sequence (Q96EB6 whole entry): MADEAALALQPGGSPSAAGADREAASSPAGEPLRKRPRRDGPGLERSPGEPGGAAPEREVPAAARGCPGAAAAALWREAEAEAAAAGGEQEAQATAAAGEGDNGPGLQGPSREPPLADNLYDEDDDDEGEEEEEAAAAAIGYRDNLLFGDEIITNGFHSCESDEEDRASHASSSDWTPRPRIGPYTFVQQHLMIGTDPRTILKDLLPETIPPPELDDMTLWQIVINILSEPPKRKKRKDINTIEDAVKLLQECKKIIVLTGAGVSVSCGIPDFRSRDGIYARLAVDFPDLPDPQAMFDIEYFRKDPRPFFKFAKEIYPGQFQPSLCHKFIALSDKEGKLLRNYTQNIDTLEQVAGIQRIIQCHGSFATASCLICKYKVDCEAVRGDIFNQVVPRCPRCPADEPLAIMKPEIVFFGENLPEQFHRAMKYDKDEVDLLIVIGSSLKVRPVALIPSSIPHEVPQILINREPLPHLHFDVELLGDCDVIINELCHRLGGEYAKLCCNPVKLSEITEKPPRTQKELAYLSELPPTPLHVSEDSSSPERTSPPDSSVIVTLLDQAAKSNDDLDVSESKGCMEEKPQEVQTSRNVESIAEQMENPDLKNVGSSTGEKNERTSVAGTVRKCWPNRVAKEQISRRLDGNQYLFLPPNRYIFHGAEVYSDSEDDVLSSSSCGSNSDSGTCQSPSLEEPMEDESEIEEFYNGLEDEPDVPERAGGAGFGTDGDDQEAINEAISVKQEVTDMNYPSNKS

[9] = target: T5, NAD-dependent protein deacetylase (Schistosoma mansoni, UniProt T1VXA1); assay: Inhibition of recombinant Schistosoma mansoni sirtuin 2 (21 to 322 residues) expressed in Escherichia coli BL21(DE3) cells using ZMAL as substrate after 1 hr in presence of NAD+ by homogeneous fluorescence based analysis
T5 sequence (T1VXA1 whole entry): T2 sequence (whole entry)

[10] = tested on: Schistosoma mansoni; assay: Antiparasitic activity against adult Schistosoma mansoni Puerto Rico assessed as reduction in worm pairing at 10 to 20 uM after 24 hrs by microscopic analysis; type: functional, organism-based
[11] = target: T2, NAD-dependent protein deacetylase (Schistosoma mansoni); assay: Inhibition of recombinant Schistosoma mansoni sirtuin 2 (21 to 322 residues) expressed in Escherichia coli BL21(DE3) cells at 25 uM using ZMAL as susbtrate after 1 hr in presence of NAD+ by homogeneous fluorescence based analysis relative to control
[12] = target: T1, NAD-dependent protein deacetylase sirtuin-2; assay: Inhibition of N-terminal His6 tagged human sirtuin 2 (25 to 389 residues) using Cbz-Lys(acetyl)-AMC as substrate after 4 hrs in presence of NAD+ by homogeneous fluorescence based analysis

| SMILES | inhibition at 25 µM [1] [%] | IC50 [9] [µM] | inhibition [11] [%] | other results |
| --- | --- | --- | --- | --- |
| COc1cc(OC)cc(Sc2ccc(C(C)N(C)c3ncc4c(N)nc(N)nc4n3)cc2)c1 (configuration not stated) | 27.9 | 4.3 |  | inhibition [2]: Active; Activity [3]: Non-Toxic; inhibition [4]: 15%; inhibition [5]: Active; IC50 [6]: 25.1 µM; inhibition at 25 µM [7]: < 15%; inhibition at 25 µM [8]: < 15%; inhibition [10]: Active |
| Nc1ncc2c(N)nc(N)nc2n1 | < 15 |  | < 15 |  |
| Nc1nc(N)c2cnc(N3CCN(c4ccccc4)CC3)nc2n1 | < 15 |  | < 15 |  |
| COc1ccc(Oc2ccc(C(c3ccccc3)N(C)c3ncc4c(N)nc(N)nc4n3)cc2)cc1 (configuration not stated) | 22.1 | 2.34 |  | inhibition [2]: Active; Activity [3]: Non-Toxic; inhibition [5]: Active; inhibition [10]: Active; Imax [11]: 60% |
| CC(c1ccc(Oc2ccccc2)cc1)N(C)c1ncc2c(N)nc(N)nc2n1 (configuration not stated) | < 15 |  | 27.6 |  |
| Nc1nc(N)c2cnc(NC3CCN(Cc4ccccc4)CC3)nc2n1 | 23.2 |  | < 15 |  |
| CC1CCCCN1c1ncc2c(N)nc(N)nc2n1 (configuration not stated) | < 15 |  | < 15 |  |
| CN(Cc1ccccc1)c1ncc2c(N)nc(N)nc2n1 | < 15 |  | < 15 |  |
| COc1ccc(COc2ccc(C(C)N(C)c3ncc4c(N)nc(N)nc4n3)cc2)cc1 (configuration not stated) | 61.7 |  | 46.2 | inhibition [2]: Active; Activity [3]: Toxic; inhibition [5]: Active; inhibition at 25 µM [7]: < 15%; inhibition at 25 µM [8]: < 15%; inhibition [10]: Active |
| COc1cc(OC)cc(Oc2ccc(C(C)N(C)c3ncc4c(N)nc(N)nc4n3)cc2)c1 (configuration not stated) | 7.4 | 12.5 |  | inhibition [2]: Active; Activity [3]: Non-Toxic; inhibition [5]: Active; inhibition [10]: Active |
| COc1ccc(Oc2ccc(CN(C)c3ncc4c(N)nc(N)nc4n3)cc2)cc1 | < 15 |  | < 15 | inhibition [2]: Active; Activity [3]: Toxic; inhibition [5]: Active; inhibition at 25 µM [7]: < 15%; inhibition at 25 µM [8]: < 15%; inhibition [10]: Active |
| CC(=O)Nc1ccc(-c2noc(CC3CCCN(Cc4cccc(F)c4C)C3)n2)cc1 (configuration not stated) |  | 14 to 14.5 |  | IC50 [12]: 3.6 to 8 µM |
| COc1ccc(Oc2ccc(C(C(C)C)N(C)c3ncc4c(N)nc(N)nc4n3)cc2)cc1 (configuration not stated) | 57.4 | 27.7 |  |  |
| COc1cccc(Oc2ccc(C(C)N(C)c3ncc4c(N)nc(N)nc4n3)cc2)c1 (configuration not stated) | 33.8 | 23.1 |  |  |
| COc1ccc(Oc2ccc(C(C)Nc3ncc4c(N)nc(N)nc4n3)cc2)cc1 (configuration not stated) | 21 |  | 37.5 |  |
| COc1cc(OC)cc(Oc2ccc(C(c3ccccc3)N(C)c3ncc4c(N)nc(N)nc4n3)cc2)c1 (configuration not stated) | 29.6 | 3.3 |  | inhibition [2]: Active; Activity [3]: Non-Toxic; inhibition [4]: < 15%; inhibition [5]: Active; IC50 [6]: 13.1 µM; inhibition at 25 µM [7]: < 15%; inhibition at 25 µM [8]: < 15%; inhibition [10]: Active |
| CC(Nc1ncc2c(N)nc(N)nc2n1)c1ccccc1 (configuration not stated) | < 15 |  | < 15 |  |
| CNC(C)c1ccc(Oc2ccccc2)cc1 (configuration not stated) | < 15 |  | < 15 |  |

| SMILES | inhibition at 25 µM [1] [%] | IC50 [9] [µM] | inhibition [11] [%] | other results |
| --- | --- | --- | --- | --- |
| COc1ccc(Oc2ccc(C(C)N(C)c3ncc4c(N)nc(N)nc4n3)cc2)c2ccccc12 (configuration not stated) | 30.6 |  | 18.4 |  |
| CCCCCCCC(=O)Nc1ccc(-c2noc(CC3CCCN(Cc4cccc(F)c4C)C3)n2)cc1 (configuration not stated) | < 15 |  | 30.5 |  |
| CCCCCCCCCC(=O)Nc1ccc(-c2noc(CC3CCCN(Cc4cccc(F)c4C)C3)n2)cc1 (configuration not stated) | < 15 |  | < 15 |  |
| COc1cc(Oc2ccc(C(C)N(C)c3ncc4c(N)nc(N)nc4n3)cc2)cc(OC)c1OC (configuration not stated) | 29.2 | 30.8 |  |  |
| CC(c1ccccc1)N(C)c1ncc2c(N)nc(N)nc2n1 (configuration not stated) | < 15 |  | < 15 |  |
| COc1ccc(Sc2ccc(C(C)N(C)c3ncc4c(N)nc(N)nc4n3)cc2)cc1 (configuration not stated) |  | 14.9 |  | IC50 [12]: 13.3 µM |
| COC1=C(OC)C(=O)C(CCCCCCCCCCO)=C(C)C1=O [IDEBENONE] |  | 1.9 |  | IC50 [12]: 15.4 µM |
| COc1ccc(Oc2ccc(CN(C)c3ncc(C#N)c(N)n3)cc2)cc1 | < 15 |  | < 15 |  |
| COc1ccc(CNc2ncc3c(N)nc(N)nc3n2)cc1 | < 15 |  | < 15 |  |
| CC(c1ccc(Oc2ccc(OC(F)(F)F)cc2)cc1)N(C)c1ncc2c(N)nc(N)nc2n1 (configuration not stated) | 37.5 |  | 20.3 |  |
| CC(c1ccc(Oc2ccc(OCc3ccccc3)cc2)cc1)N(C)c1ncc2c(N)nc(N)nc2n1 (configuration not stated) | 70.4 |  | 40.3 |  |
| COc1ccc(Nc2ccc(C(C)N(C)c3ncc4c(N)nc(N)nc4n3)cc2)cc1 (configuration not stated) | 40.8 | 65.1 |  |  |
| COc1ccc(Oc2ccc(C(C)N(C)c3ncc4c(N)nc(N)nc4n3)cc2)cc1OC (configuration not stated) | 35.3 | 44.7 |  |  |
| COc1ccc(C(C)N(C)c2ncc3c(N)nc(N)nc3n2)cc1 (configuration not stated) | < 15 |  | < 15 |  |
| CCC(c1ccc(Oc2ccc(OC)cc2)cc1)N(C)c1ncc2c(N)nc(N)nc2n1 (configuration not stated) |  | 12.8 |  | IC50 [12]: 36.7 µM |
| CC(c1ccc(-c2ccccc2)cc1)N(C)c1ncc2c(N)nc(N)nc2n1 (configuration not stated) | < 15 |  | 24.8 |  |
| Nc1nc(N)c2cnc(N3CCc4ccccc4C3)nc2n1 | < 15 |  | < 15 |  |

— ChEMBL document CHEMBL4321809, “Structure-Reactivity Relationships on Substrates and Inhibitors of the Lysine Deacylase Sirtuin 2 from Schistosoma mansoni (SmSirt2)” (J Med Chem, 2019)
